These results are taken from patent publication US20030040456A1, “Method and apparatus for cleaning article” (priority 2000, published 2003).

Data set [1] in a line: solubility of the organic solvents in castor oil at 30° C. In kind it is physicochemical. The protocol:
In the present invention, the organic solvent having high compatibility with oil is an organic solvent having high compatibility with oil adhered to an article to be cleaned, preferably an organic solvent which can be mixed with castor oil (Japanese Pharmacopoeia Act) as a typical example of the oil and standard oil in any ratio at 30° C. Preferred examples of the organic solvent having high compatibility with such oil include paraffin-based hydrocarbons such as dodecane, undecane and tridecane, naphthene-based hydrocarbons and polar organic solvents. Out of these, polar organic solvents are preferred. The polar organic solvents are preferably organic solvents having a dielectric constant of 8 or more, preferably 10 or more, such as glycol ether-based compounds, pyrrolidone-based compounds and imidazolidinone-based compounds. As the glycol ether-based compounds may be used ethylene glycol-based compounds but preferred are propylene glycol alkyl ether-based compounds.
(§1) The organic solvents and surfactants used in examples and comparative examples are given below.

Data set [2] is described as follows: solubility of the organic solvents in water at 60° C. In kind it is physicochemical. How it is done:
The organic solvent having high compatibility with oil is preferably a polar organic solvent as described above because excellent cleanability can be obtained. The polar organic solvent is particularly preferably an organic solvent having low compatibility with water, specifically solubility in water at 60° C. of 50 vol % or less, preferably 30 vol % or less. More specifically, the polar organic solvent is preferably selected from a propylene glycol alkyl ether-based compound represented by the following formula (I): [drawing 1]
Compatibility with water means ability of mixing with water in any ratio at 60° C.
as §1

Regarding `CN1CCN(C)C1=O` [DMI, 1,3-dimethyl-2-imidazolidinone], the “solubility in castor oil” value in data set [1] is “infinitely soluble”. In addition, in data set [2], the “solubility in water (in words)” value was “infinitely soluble”.

On to `CN1CCCC1=O` [NMP, N-methylpyrrolidone], for which the “solubility in castor oil” value in data set [1] was “infinitely soluble”. Moreover, the “solubility in water (in words)” value in data set [2] was “infinitely soluble”.

Turning to `CCCCCCCCCCCCCC` [TD, n-tetradecane], in data set [1], the “solubility in castor oil” value is recorded as “infinitely soluble”. In addition, in data set [2], the solubility in water entry is “less than 1 vol %”.

Turning to `CCCOC(C)COC(C)CO` (stereo not drawn) [DPP, dipropylene glycol monopropyl ether], the “solubility in castor oil” value in data set [1] is reported as “infinitely soluble”. Also, the solubility in water in data set [2] came out at 10 vol %.

Turning to “dipropylene glycolmonomethyl ether [DPM]”, in data set [1], the “solubility in castor oil” value is “infinitely soluble”. Besides, in data set [2], the “solubility in water (in words)” value is reported as “infinitely soluble”.

Turning to `CCCCOCC(C)O` (stereo not drawn) [PB, propylene glycol monobutyl ether], the “solubility in castor oil” value in data set [1] is on record as “infinitely soluble”. The molecule further registered a solubility in water in data set [2] of 6 vol %.
